Data taken from ChEMBL document CHEMBL1201862, “PubChem BioAssay data set” (2004).
Active and inactive are the calls of the source. Rule as the data show it, for most assays here: actives have a measured EC50 and inactives only a lower limit.

Experiments:
[1] = target: Peroxisome proliferator-activated receptor gamma/Nuclear receptor coactivator 2 (Homo sapiens, UniProt P37231); type: functional;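 also: agonist potency for raising coactivator recruitment to the receptor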
[2] = target: Peroxisome proliferator-activated receptor gamma/Nuclear receptor coactivator 3 (Homo sapiens, UniProt P37231); type: functional;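 also: agonist potency for raising coactivator recruitment to the receptor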
[3] = target: Peroxisome proliferator-activated receptor gamma/Nuclear receptor coactivator 1 (Homo sapiens, UniProt P37231); type: functional;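 also: agonist potency as compounds enhance coactivator SRC-1 recruitment to PPARgamma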
[4] = target: T1, Neuropeptide Y receptor type 1 (Homo sapiens, UniProt P25929); experiment: IC50 of human NPY-Y1 blockers – cell-based, dose response (AID 1277); type: functional
T1 sequence (P25929 whole entry): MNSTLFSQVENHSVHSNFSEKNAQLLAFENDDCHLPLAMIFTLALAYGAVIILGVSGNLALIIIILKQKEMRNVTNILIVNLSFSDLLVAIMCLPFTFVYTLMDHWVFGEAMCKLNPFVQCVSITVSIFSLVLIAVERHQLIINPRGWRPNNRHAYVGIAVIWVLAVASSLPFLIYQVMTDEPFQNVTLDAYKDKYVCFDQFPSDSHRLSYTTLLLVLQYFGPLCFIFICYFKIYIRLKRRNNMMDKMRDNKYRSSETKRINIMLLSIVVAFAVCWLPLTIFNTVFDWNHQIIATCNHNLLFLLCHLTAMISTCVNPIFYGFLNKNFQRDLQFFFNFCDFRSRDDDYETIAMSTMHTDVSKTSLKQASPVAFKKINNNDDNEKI

[5] = target: T2, Neuropeptide Y receptor type 2 (Homo sapiens, UniProt P49146); experiment: IC50 for human NPY-Y2 blockade – cell-based, counter-screen for NPY-Y1 antagonist project, dose response (AID 1278); type: functional
T2 sequence (P49146 whole entry): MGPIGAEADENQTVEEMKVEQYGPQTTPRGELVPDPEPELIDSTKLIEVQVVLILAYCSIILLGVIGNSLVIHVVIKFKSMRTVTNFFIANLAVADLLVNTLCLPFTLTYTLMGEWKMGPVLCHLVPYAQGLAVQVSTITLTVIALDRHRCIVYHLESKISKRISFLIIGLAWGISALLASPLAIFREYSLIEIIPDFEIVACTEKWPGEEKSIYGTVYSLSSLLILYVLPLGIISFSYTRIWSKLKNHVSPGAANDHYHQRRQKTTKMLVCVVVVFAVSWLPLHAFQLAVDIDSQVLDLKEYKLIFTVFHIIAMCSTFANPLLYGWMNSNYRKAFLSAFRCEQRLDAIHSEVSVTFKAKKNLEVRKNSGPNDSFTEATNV

Beta-galactosidase [6] = target: T3, Beta-galactosidase (Escherichia coli, UniProt Q8VNN2); type: functional
BJ [7] = experiment: cells; type: functional, cell-based; details: Homo sapiens
[8] = luciferase reporter signal reduction – luminescence, H4-C neuroglioblastoma cells, dose response (AID 2458); type: functional, cell-based;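 also: H4 neuroglioblastoma cells stably carrying a luciferase reporter gene fusion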
Nonstructural protein 1 = Nonstructural protein 1 (Influenza A virus, UniProt Q194T2); type: functional, Influenza A virus (A/California/07/2009(H1N1))
[9] = Luminescence Cell-Based Dose Response HTS to Identify Inhibitors of 5'UTR Stem-Loop Driven Prion Protein mRNA Translation in H4 Neuroglioblastoma Cells. [Related pubchem assays: 1827 (Project Summary), 1813 (Primary HTS)]; type: functional
BJ [10] = experiment: BJ-TERT-LT-ST fibroblast viability loss – cell-based, RAS-independent, luminescence, dose response (AID 1935); type: functional; details: Homo sapiens;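 also: BJ fibroblasts immortalized with TERT plus LT and ST oncogenes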
[11] = luciferase reporter signal suppression in cells – H4 neuroglioma cells, luminescence, dose response (AID 1990); type: functional, cell-based
[12] = target: T4, Zinc finger protein mex-5 (Caenorhabditis elegans, UniProt Q9XUB2); experiment: potency of MEX-5 RNA-binding blockers – biochemical, C. elegans, fluorescence polarization, dose response (AID 1960)
T4 sequence (Q9XUB2 whole entry): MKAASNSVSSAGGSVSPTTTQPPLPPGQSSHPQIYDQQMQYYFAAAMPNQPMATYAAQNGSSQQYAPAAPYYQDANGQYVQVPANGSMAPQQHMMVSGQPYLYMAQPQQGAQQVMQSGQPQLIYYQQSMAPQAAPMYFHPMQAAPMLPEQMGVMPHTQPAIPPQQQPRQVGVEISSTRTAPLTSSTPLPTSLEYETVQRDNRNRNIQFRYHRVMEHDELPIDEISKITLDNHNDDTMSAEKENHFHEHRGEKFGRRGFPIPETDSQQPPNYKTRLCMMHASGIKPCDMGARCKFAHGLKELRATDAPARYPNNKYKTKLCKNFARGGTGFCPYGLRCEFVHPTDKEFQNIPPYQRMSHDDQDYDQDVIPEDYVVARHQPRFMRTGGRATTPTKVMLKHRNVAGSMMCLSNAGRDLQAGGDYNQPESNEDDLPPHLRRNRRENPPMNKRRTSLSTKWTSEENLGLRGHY

[13] = target: Heat shock protein HSP 90-alpha (Homo sapiens, UniProt P07900); type: functional, organism-based
cells = type: functional, cell-based
[14] = target: T5, RNA-binding protein pos-1 (Caenorhabditis elegans, UniProt G5EF15); experiment: disruptors of C. elegans POS-1 RNA interaction – biochemical, fluorescence polarization, dose response (AID 1964);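 also: purified POS-1 fused to maltose binding protein made in E. coli; potency of compounds blocking POS-1 binding to fluorescent RNA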
T5 sequence (G5EF15 whole entry): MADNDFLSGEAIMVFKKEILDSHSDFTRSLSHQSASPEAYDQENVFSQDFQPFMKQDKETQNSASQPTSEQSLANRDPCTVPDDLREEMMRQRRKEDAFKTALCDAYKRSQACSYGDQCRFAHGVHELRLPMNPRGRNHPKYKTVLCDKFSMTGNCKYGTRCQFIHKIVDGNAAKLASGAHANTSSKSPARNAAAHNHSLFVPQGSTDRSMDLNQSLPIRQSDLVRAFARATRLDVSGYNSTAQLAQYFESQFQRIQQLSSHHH

[15] = Luminescence-based dose response cell-based high throughput screening assay for cytotoxic compounds using the IEC-6 intestinal epithelial cell line. [Related pubchem assays: 1858 (Summary AID.), 1825 (Counterscreen.), 1907 (Confirmation screen.)]; type: functional
[16] = target: T6, Kappa-type opioid receptor (Homo sapiens, UniProt P41145); type: functional
[17] = target: T6, Kappa-type opioid receptor; type: functional; remark: listed apart in the source
[18] = alpha-synuclein stem-loop translation blockers – luminescence, H4 neuroglioblastoma cells, dose confirmation, confirmation (AID 2454); type: functional, cell-based;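 also: H4 neuroglioblastoma cells carrying an alpha-synuclein 5'UTR luciferase reporter; potency for inhibition of the luciferase signal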
BJ [19] = experiment: growth inhibition of engineered Ras-driven BJ cells – cell-based, alamar blue fluorescence, cherrypicked samples, dose response (AID 2631); type: functional; details: Homo sapiens;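 also: confirmatory dose-response assay in RAS-dependent BJ fibroblasts engineered with TERT, LT and ST, with cytotoxicity read by fluorescence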
Beta-galactosidase [20] = target: T3, Beta-galactosidase; experiment: Dose response counterscreen for EBI2 assay utilizing the enzyme, b-galactosidase.; type: functional
BJ [21] = experiment: BJ-TERT fibroblast viability loss – cell-based, RAS-independent, luminescence, dose response (AID 1933); type: functional; details: Homo sapiens
[22] = alpha-synuclein stem-loop luciferase translation blockers – H4 neuroglioma cells, luminescence, confirmation (AID 1988); type: functional, cell-based
[23] = DRD fibroblast viability loss – cell-based, non-viral oncogenic, luminescence, dose response (AID 1934); type: functional; details: Homo sapiens
[24] = target: Potassium voltage-gated channel subfamily KQT member 2 (Rattus norvegicus, UniProt O88943, W236L); experiment: potentiation of rat KCNQ2 current – cell-based, automated electrophysiology, mechanism study for KCNQ2 potentiator project, dose response (AID 2603); type: functional
Sequence of Potassium voltage-gated channel subfamily KQT member 2 (O88943 whole entry W236L): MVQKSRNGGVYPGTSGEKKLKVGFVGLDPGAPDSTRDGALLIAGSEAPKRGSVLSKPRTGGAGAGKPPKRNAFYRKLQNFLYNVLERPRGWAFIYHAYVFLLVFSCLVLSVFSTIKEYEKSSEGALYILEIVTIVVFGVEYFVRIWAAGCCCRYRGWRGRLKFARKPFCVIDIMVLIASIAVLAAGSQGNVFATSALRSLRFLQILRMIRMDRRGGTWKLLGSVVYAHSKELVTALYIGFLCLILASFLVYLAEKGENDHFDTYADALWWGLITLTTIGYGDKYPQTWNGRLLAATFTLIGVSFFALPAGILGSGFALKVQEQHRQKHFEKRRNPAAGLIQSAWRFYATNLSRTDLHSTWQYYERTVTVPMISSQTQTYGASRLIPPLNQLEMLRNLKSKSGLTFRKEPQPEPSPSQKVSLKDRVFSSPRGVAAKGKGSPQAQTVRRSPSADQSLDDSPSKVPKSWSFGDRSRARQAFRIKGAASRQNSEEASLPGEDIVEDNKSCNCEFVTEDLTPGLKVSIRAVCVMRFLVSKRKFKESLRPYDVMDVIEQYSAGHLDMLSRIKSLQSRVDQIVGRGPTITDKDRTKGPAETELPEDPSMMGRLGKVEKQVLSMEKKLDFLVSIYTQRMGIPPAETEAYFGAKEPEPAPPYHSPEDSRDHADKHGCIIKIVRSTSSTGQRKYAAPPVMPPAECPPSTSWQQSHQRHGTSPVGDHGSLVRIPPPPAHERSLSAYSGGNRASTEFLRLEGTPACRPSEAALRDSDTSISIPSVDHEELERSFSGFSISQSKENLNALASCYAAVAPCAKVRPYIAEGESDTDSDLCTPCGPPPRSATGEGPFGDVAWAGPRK

T6 sequence (P41145 whole entry): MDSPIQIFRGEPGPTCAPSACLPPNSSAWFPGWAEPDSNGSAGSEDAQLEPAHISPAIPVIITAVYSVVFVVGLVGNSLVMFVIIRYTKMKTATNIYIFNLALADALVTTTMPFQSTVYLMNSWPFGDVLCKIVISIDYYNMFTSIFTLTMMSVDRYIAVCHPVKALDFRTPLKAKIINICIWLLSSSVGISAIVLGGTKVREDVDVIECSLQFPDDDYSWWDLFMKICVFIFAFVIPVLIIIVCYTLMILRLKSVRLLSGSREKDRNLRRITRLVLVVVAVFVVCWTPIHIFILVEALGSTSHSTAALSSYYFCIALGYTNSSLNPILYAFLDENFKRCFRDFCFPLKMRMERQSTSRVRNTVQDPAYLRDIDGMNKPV
T3 sequence (Q8VNN2 whole entry): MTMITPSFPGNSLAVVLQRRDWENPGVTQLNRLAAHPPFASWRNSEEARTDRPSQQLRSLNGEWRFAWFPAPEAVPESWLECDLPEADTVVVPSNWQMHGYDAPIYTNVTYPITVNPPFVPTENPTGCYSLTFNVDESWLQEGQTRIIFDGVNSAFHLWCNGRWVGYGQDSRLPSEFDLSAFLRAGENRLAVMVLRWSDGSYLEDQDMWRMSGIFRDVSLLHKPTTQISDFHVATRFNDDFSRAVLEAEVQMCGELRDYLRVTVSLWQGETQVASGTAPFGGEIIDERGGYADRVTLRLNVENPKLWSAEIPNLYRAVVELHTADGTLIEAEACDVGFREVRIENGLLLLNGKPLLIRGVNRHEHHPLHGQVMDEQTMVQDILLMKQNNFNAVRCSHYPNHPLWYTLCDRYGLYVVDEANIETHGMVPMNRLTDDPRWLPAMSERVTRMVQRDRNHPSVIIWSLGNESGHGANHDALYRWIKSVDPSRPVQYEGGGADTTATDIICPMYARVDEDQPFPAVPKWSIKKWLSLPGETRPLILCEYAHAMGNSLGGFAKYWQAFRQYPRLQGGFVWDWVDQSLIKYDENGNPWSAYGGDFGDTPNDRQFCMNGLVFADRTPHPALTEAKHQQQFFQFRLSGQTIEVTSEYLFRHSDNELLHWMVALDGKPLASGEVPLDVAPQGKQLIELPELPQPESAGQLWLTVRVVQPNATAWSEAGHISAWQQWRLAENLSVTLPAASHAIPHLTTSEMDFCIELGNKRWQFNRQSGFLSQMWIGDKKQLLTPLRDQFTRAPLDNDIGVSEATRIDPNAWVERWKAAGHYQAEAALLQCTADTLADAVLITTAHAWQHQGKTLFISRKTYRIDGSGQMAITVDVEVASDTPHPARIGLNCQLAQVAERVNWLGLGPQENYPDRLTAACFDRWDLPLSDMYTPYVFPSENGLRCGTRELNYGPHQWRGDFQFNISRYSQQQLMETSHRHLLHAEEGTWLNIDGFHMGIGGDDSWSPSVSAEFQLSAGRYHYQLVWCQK
Sequence of Peroxisome proliferator-activated receptor gamma/Nuclear receptor coactivator 3 (P37231 whole entry): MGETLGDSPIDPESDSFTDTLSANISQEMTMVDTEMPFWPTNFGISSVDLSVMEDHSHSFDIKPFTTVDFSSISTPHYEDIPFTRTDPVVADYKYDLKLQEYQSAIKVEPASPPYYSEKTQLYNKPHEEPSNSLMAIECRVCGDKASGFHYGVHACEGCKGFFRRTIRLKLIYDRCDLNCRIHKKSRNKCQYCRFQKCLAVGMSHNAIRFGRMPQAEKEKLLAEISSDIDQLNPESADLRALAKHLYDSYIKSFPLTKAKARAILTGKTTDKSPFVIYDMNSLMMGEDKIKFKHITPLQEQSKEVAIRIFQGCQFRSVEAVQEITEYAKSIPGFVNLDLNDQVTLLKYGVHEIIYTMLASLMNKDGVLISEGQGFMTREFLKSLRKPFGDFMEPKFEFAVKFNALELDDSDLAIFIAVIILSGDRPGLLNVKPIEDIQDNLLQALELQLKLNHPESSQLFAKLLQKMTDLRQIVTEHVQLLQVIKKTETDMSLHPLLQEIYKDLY
Sequence of Peroxisome proliferator-activated receptor gamma/Nuclear receptor coactivator 3 (Q9Y6Q9 whole entry, further chain): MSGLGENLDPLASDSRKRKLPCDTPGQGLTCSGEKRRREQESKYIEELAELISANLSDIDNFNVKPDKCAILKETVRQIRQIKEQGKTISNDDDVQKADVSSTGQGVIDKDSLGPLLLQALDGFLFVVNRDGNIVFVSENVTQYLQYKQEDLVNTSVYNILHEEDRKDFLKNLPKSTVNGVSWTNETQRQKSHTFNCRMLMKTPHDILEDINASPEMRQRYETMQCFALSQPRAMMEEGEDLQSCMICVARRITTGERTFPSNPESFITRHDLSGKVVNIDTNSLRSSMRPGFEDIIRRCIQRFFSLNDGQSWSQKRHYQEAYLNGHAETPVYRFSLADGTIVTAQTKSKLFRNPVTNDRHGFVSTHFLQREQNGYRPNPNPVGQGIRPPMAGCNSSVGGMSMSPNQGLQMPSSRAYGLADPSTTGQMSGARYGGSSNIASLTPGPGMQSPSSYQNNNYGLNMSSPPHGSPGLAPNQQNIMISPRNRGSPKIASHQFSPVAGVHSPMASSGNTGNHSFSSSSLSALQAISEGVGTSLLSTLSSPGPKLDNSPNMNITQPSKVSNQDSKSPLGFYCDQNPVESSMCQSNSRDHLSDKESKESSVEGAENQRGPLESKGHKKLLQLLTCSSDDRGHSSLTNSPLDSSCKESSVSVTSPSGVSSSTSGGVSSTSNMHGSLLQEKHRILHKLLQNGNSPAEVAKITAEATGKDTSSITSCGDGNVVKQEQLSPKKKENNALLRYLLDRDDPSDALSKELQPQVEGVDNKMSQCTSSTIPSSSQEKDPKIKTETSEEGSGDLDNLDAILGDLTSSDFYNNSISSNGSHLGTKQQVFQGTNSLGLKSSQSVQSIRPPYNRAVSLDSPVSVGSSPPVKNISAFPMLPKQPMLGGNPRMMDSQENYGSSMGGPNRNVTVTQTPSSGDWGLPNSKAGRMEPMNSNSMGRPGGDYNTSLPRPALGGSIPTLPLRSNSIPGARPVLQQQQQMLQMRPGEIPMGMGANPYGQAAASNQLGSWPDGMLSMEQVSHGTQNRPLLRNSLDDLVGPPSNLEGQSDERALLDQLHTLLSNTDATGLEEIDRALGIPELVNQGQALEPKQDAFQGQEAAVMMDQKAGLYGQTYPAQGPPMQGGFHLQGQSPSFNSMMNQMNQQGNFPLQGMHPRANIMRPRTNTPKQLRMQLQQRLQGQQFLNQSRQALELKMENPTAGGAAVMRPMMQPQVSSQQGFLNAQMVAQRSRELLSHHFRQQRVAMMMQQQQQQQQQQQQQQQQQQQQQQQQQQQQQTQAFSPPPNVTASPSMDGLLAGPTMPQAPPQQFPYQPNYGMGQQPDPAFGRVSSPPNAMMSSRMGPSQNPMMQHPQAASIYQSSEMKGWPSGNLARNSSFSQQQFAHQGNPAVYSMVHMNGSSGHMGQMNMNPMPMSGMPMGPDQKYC
Sequence of Nonstructural protein 1 (Q194T2 whole entry): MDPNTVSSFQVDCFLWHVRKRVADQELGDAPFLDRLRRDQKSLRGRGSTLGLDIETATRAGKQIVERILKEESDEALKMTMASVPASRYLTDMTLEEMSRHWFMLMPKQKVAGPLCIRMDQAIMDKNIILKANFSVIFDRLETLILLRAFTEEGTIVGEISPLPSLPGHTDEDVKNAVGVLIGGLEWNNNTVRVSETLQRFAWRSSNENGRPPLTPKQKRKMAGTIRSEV

With `O=C(CCSCc1ccccc1Cl)NCc1cccs1` the EC50 [1] was > 79.4 µM (not active), the EC50 [2] was > 79.4 µM (not active) and the EC50 [3] was > 79.4 µM (not active).
For `CCCCC(O)(CCCC)C(=O)NN(C(=O)OC)c1ccccc1`, the IC50 [4] was > 35 µM (not active) and the IC50 [5] was > 35 µM (not active).
For `C/C(=N\Nc1ncnc2sc(C)c(C)c12)c1ccccn1`, the EC50 (Beta-galactosidase [6]) was > 31.5 µM (inactive), the EC50 (BJ [7]) was 0.966 µM (inconclusive) and the EC50 [8] was 0.222 µM (active). For the same molecule, the IC50 (Nonstructural protein 1) was 19.3 µM (active), the EC50 [9] was < 0.1 µM (active) and the EC50 (BJ [10]) was 0.754 µM (inconclusive). For the same molecule, the EC50 [11] was 0.244 µM (active), the EC50 [12] was 46.7 µM (inconclusive) and the AC50 [13] was 2.42 µM (active). The EC50 (cells) was 0.472 µM (active), the EC50 [14] was 23.3 µM (inconclusive) and the IC50 [15] was 0.0762 µM (active). The IC50 [16] was greater than 32 µM, the IC50 [17] was > 31.5 µM (inactive) and the EC50 [18] was 0.378 µM (active). The EC50 (BJ [19]) was < 0.104 µM (active), the IC50 (Beta-galactosidase [20]) was > 80 µM (inactive) and the EC50 (BJ [21]) was 0.711 µM (inconclusive). The EC50 [22] was < 0.1 µM (active) and the EC50 [23] was 2.02 µM (inconclusive).
In the case of `O=C(Nc1cccc(OC(F)(F)F)c1)c1ccc(Br)o1`, the EC50 [24] is reported as 13.8 µM (active).
